From the Bradley open melting point set (2014)
Where “and” joins values, the source holds several entries; their conditions need not be identical. Identical values can stand only once.

Going from `Cc1ccccc1N1C(=O)c2cc(S(N)(=O)=O)c(Cl)cc2NC1C` (configuration not stated) [metolazone] to `Cc1ccnc2c1NC(=O)c1cccnc1N2C1CC1` [nevirapine], the melting point falls from 252 °C to 248 °C.

First: COC(=O)c1ccc(C(=O)O)cc1 [mono-methyl_terephthalate]
Second: COc1ccc(C(=O)O)cc1 [p-anisic_acid]
The melting point of the first is higher: 221 °C for the first, 184 °C for the second.

First: C1COCCN1 [morpholine]
Second: C#CC1(O)CCC2C3CCc4cc(O)ccc4C3C(OC)CC21C (configuration not stated) [moxestrol]
The melting point of the first is lower: -5 °C for the first, 280 °C for the second.

Compared with `CCN(CC)c1ccccc1` [n,n-diethylaniline], `Oc1ccccc1` [phenol] [listing 1 of 2 here] is higher in melting point: -38 °C for the first, 41 °C for the second.

Going from `CC(C)(C)NCC(O)COc1cccc2c1CC(O)C(O)C2` (configuration not stated) [nadolol] to `O(c1ccccc1OC\C=C)CC(O)CNC(C)C` (configuration not stated) [oxprenolol], the melting point falls from 124 °C to 112 °C.

Going from `CN(C)C(=S)Sc1ccc2ccccc2c1` [naphthalen-2-yl dimethyldithiocarbamate] to `c1ccc2nc3ccccc3nc2c1` [phenazine], the melting point rises from 114 °C to 176 °C.

Going from `CC(C)(C)CO` [neopentyl alcohol] to `CC(C)(C)CCl` [neopentyl chloride], the melting point falls from 54 °C to -20 °C.

First: O=C(OC[C@H]1O[C@](O)(COC(=O)c2cccnc2)[C@@H](OC(=O)c2cccnc2)[C@@H]1OC(=O)c1cccnc1)c1cccnc1 [nicofuranose]
Second: O=C(Oc1ccccc1)c1ccccc1 [phenyl benzoate]
The melting point of the first is higher: 135 °C for the first, 69 °C for the second.

First: NC(=O)c1cccnc1 [nicotinamide]
Second: Cc1ccc(C(N)=O)cc1 [p-toluamide]
The melting point of the first is lower: 130 °C for the first, 163 °C for the second.

First: O=C(OC)\C1=C(\N/C(=C(/C(=O)OC)C1c2ccccc2[N+]([O-])=O)C)C [nifedipine]
Second: CC(=O)c1ccccc1[N+](=O)[O-] [o-nitroacetophenone]
The melting point of the first is higher: 173 °C for the first, 30 °C for the second.

Compared with `O=C1CN(/N=C/c2ccc([N+](=O)[O-])o2)C(=O)N1` [nitrofurantoin], `C=CCC1(c2ccccc2)C(=O)NC(=O)NC1=O` [phenallymal] is lower in melting point: 263 °C for the first, 156 °C for the second.

First: C[N+](=O)[O-] [nitromethane]
Second: Nc1ccc([N+](=O)[O-])cc1 [p-nitroaniline]
The melting point of the first is lower: -29 °C for the first, 150 °C for the second.

Compared with `CCCCCCCCC(=O)O` [nonanoic_acid], `CCCCCCCCCCCCCCC(=O)O` [pentadecanoic acid] is higher in melting point: 12 °C for the first, 53 °C for the second.

Compared with `C#C[C@]1(O)CC[C@H]2[C@@H]3CCC4=CC(=O)CC[C@@H]4[C@H]3CC[C@@]21C` [norethindrone], `Cc1nccn1CC1CCc2c(c3ccccc3n2C)C1=O` (configuration not stated) [ondansetron] is higher in melting point: 204 °C for the first, 231 °C for the second.

First: C=CCC(CC)(CC)C(N)=O [novonal]
Second: C=Cc1ccccc1C(N)=O [o-vinylbenzamide]
The melting point of the first is lower: 75 °C for the first, 152 °C for the second.

Compared with `CNC(=S)NCO` [noxythiolin], `Nc1ccc(CO)cc1` [p-amino_benzyl_alcohol] is lower in melting point: 88 °C for the first, 75 °C for the second.

Going from `Clc1ccc(C(c2ccccc2Cl)C(Cl)(Cl)Cl)cc1` (configuration not stated) [o,p'-DDT] to `O=Cc1ccc(-c2ccccc2)cc1` [p-phenylbenzaldehyde], the melting point falls from 75 °C to 60 °C.

Going from `Cc1ccccc1O` [o-Cresol] to `Oc1ccccc1I` [o-iodophenol], the melting point rises from 33 °C to 42 °C.

First: CC(=O)Oc1ccccc1C=O [o-acetoxybenzaldehyde]
Second: O=Cc1ccccc1Br [o-bromobenzaldehyde]
The melting point of the first is higher: 38 °C for the first, 22 °C for the second.

Compared with `CC(=O)c1ccccc1C#N` [o-acetyl_benzonitrile], `Cc1ccccc1C#N` [o-tolunitrile] is lower in melting point: 48 °C for the first, 13 °C for the second.

Compared with `CC(=O)c1ccccc1C(N)=O` [o-acetylbenzamide], `Nc1ccccc1C(=O)O` [o-aminobenzoic_acid] is higher in melting point: 122 °C for the first, 146 °C for the second.

`COc1ccccc1N` [o-anisidine] [listing 1 of 2 here] and `COc1ccccc1N` [o-anisidine] [listing 2 of 2 here] are the same in melting point: 6 °C for the first, 6 °C for the second.

Compared with `O=C(O)c1ccccc1Br` [o-bromobenzoic_acid], `O=C(O)c1ccccc1[N+](=O)[O-]` [o-nitrobenzoic_acid] is lower in melting point: 149 °C for the first, 148 °C for the second.

First: Brc1ccccc1I [o-bromoiodobenzene]
Second: Nc1ccccc1I [o-iodoaniline]
The melting point of the first is lower: 10 °C for the first, 58 °C for the second.

Going from `N#CCc1ccccc1Br` [o-bromophenylacetonitrile] to `N#CCc1ccccc1C#N` [o-cyano_phenylacetonitrile], the melting point rises from -1 °C to 80 °C.

Compared with `N#Cc1ccccc1C=O` [o-cyanobenzaldehyde], `N#CCc1ccccc1[N+](=O)[O-]` [o-nitrophenylacetonitrile] is lower in melting point: 108 °C for the first, 84 °C for the second.

Compared with `COc1ccccc1OC` [o-dimethoxybenzene], `COc1ccc(OC)cc1` [p-dimethoxybenzene] is higher in melting point: 15 °C for the first, 60 °C for the second.

Compared with `OCc1ccccc1I` [o-iodobenzyl_alcohol], `O=C(O)Cc1ccccc1` [phenylacetic_acid] is lower in melting point: 92 °C for the first, 79 °C for the second.

First: O=C(O)Cc1ccccc1-c1ccccc1 [o-phenyl_phenylacetic_acid]
Second: Oc1ccccc1-c1ccccc1 [o-phenylphenol]
The melting point of the first is higher: 116 °C for the first, 60 °C for the second.

Going from `NC(=O)c1ccccc1-c1ccccc1` [o-phenylbenzamide] to `O=C(Oc1ccccc1)c1ccccc1O` [phenyl salicylate] [listing 1 of 2 here], the melting point falls from 177 °C to 42.2 °C.

Compared with `C[Si]1(C)O[Si](C)(C)O[Si](C)(C)O[Si](C)(C)O1` [octamethylcyclotetrasiloxane], `CCCC(C)C1(CC)C(=O)NC(=O)NC1=O` (configuration not stated) [pentobarbital] is higher in melting point: 18 °C for the first, 130 °C for the second.

Going from `O=C(c1ccc(Br)cc1)c1ccc(Br)cc1` [p,p'-dibromobenzophenone] to `O=C(c1ccccc1)c1ccc(Br)cc1` [p-bromobenzophenone], the melting point falls from 175 °C to 82 °C.

Going from `N#Cc1ccc(-c2ccc(C#N)cc2)cc1` [p,p'-dicyanobiphenyl] to `N#CCc1ccc(C#N)cc1` [p-cyano_phenylacetonitrile], the melting point falls from 237 °C to 100 °C.

Going from `Cc1ccc(O)cc1` [p-Cresol] to `Cc1ccc(O)cc1` [p-cresol], the melting point falls from 34 °C to 33 °C.

First: Nc1ccc(C(=O)O)c(O)c1 [p-aminosalicylic acid]
Second: O=C(O)c1ccc(I)cc1 [p-iodobenzoic_acid]
The melting point of the first is lower: 150 °C for the first, 273 °C for the second.

Going from `O=C1C=CC(=O)C=C1` [p-benzoquinone] to `NC(=O)c1ccc(C=O)cc1` [p-formyl_benzamide], the melting point falls from 114 °C to 75 °C.

Going from `CC(=O)c1ccc(Br)cc1` [p-bromoacetophenone] to `CCOc1ccc(C(C)=O)cc1` [p-ethoxyacetophenone], the melting point falls from 51 °C to 39 °C.

Going from `Nc1ccc(Br)cc1` [p-bromoaniline] to `Brc1ccc(Br)cc1` [p-dibromobenzene], the melting point rises from 63 °C to 88 °C.

Going from `N#CCc1ccc(Br)cc1` [p-bromophenylacetonitrile] to `N#CCc1ccc(C(=O)O)cc1` [p-cyanomethyl_benzoic_acid], the melting point rises from 48 °C to 192 °C.

Going from `O=Cc1ccc(Cl)cc1` [p-chlorobenzaldehyde] to `Cc1ccc(C=O)cc1` [p-tolualdehyde], the melting point falls from 46 °C to -6 °C.

Compared with `Oc1ccc(Cl)cc1` [p-chlorophenol], `Nc1ccc(I)cc1` [p-iodoaniline] is higher in melting point: 44 °C for the first, 63 °C for the second.

Compared with `C=Cc1ccc(C#N)cc1` [p-cyanostyrene], `C=Cc1ccc([N+](=O)[O-])cc1` [p-nitrostyrene] is higher in melting point: -15 °C for the first, 29 °C for the second.

First: CCOc1ccc(OCC)cc1 [p-diethoxybenzene]
Second: CCOc1ccc(NC(C)=O)cc1 [phenacetin] [listing 1 of 2 here]
The melting point of the first is lower: 72 °C for the first, 134 °C for the second.

First: NC(=O)c1ccc(CO)cc1 [p-hydroxymethyl_benzamide]
Second: Cc1ccc(C(=O)O)cc1 [p-toluic acid]
The melting point of the first is lower: 135 °C for the first, 180 °C for the second.

Compared with `Cc1ccc(I)cc1` [p-iodotoluene], `Cc1ccc(N)cc1` [p-toluidine] is higher in melting point: 43 °C for the first, 44 °C for the second.

First: N#Cc1ccc([N+](=O)[O-])cc1 [p-nitrobenzonitrile]
Second: CC(=O)Oc1ccc([N+](=O)[O-])cc1 [p-nitrophenyl_acetate]
The melting point of the first is higher: 149 °C for the first, 78 °C for the second.

First: OCc1ccc(-c2ccccc2)cc1 [p-phenylbenzyl alcohol]
Second: O=C(Oc1ccccc1)c1ccccc1O [phenyl salicylate] [listing 2 of 2 here]
The melting point of the first is higher: 105 °C for the first, 43 °C for the second.

First: Nc1ccc(N)cc1 [p-phenylenediamine]
Second: Cc1ccc(S(=O)(=O)Cl)cc1 [p-toluenesulfonyl_chloride]
The melting point of the first is higher: 140 °C for the first, 69 °C for the second.

First: Clc1cc(Cl)c(Cl)c(Cl)c1Cl [pentachlorobenzene]
Second: OCCN1CCN(CCCN2c3ccccc3Sc3ccc(Cl)cc32)CC1 [perphenazine]
The melting point of the first is lower: 86 °C for the first, 94 °C for the second.

First: O=Cc1c(F)c(F)c(F)c(F)c1F [pentafluorobenzaldehyde]
Second: CCC1(c2ccccc2)C(O)=NC(=O)N=C1O [phenobarbital]
The melting point of the first is lower: 26 °C for the first, 176 °C for the second.

Going from `CCCCCOCCCCC` [pentyl_ether] to `CCCCC1C(=O)N(c2ccccc2)N(c2ccccc2)C1=O` [phenylbutazone], the melting point rises from -69 °C to 107 °C.

Compared with `CN1CCN(CCCN2c3ccccc3Sc3ccccc32)CC1` [perazine], `c1ccc(Oc2ccccc2)cc1` [phenyl_ether] is lower in melting point: 53 °C for the first, 28 °C for the second.

Compared with `O=C1NN(c2ccccc2)C(=O)C1c1ccccc1` (configuration not stated) [phenopyrazone], `NC(Cc1ccccc1)C(=O)O` (configuration not stated) [phenylalanine] is lower in melting point: 233 °C for the first, 186 °C for the second.

First: NC(=O)Oc1ccccc1 [phenyl carbamate]
Second: O=C=Nc1ccccc1 [phenyl isocyanate]
The melting point of the first is higher: 151 °C for the first, -33 °C for the second.

In the case of `c1ccc2ccccc2c1` [naphthalene], the melting point was 80 °C and 82 °C and 81 °C.
In the case of `Cc1ccccc1O` [o-cresol], the melting point was 31 °C and 32 °C.
With `CCCCCCCC` [octane] the melting point was -57 °C and -56.8 °C.
With `CCCCCCCC(=O)O` [octanoic acid] the melting point was 16.3 °C and 17 °C.
`CCCCC` [pentane] showed a melting point of -130 °C.
For `c1cc2cccc3c4cccc5cccc(c(c1)c23)c54` [perylene], the melting point was 277 °C and 278 °C (2×).
In the case of `CCOc1ccc(NC(C)=O)cc1` [phenacetin] [listing 2 of 2 here], the melting point was 138 °C and 135 °C (2×).
In the case of `Oc1ccccc1` [phenol] [listing 2 of 2 here], the melting point was 41 °C (3×) and 42 °C.
For `O=C(O)Cc1ccccc1` [phenylacetic acid], the melting point was 77.5 °C and 76.7 °C and 77 °C.
